# What was measured:
# Test in all cases: cells
# HEL = format: functional, cell-based, Homo sapiens; details: Homo sapiens, HEL;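 also: growth inhibition of HEL cells, read out with a cell viability assay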
# Description: SANGER: Inhibition of human HEL cell growth in a cell viability assay.
# TK-10 = format: functional, cell-based, Homo sapiens; details: Homo sapiens, TK-10;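 also: growth inhibition of TK-10 cells, read out in a cell viability assay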
# Description: SANGER: Inhibition of human TK10 cell growth in a cell viability assay.
# NB10 = format: functional, cell-based, Homo sapiens; details: Homo sapiens, NB10;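 also: growth inhibition of NB10 cells, read out by a cell viability assay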
# Description: SANGER: Inhibition of human NB10 cell growth in a cell viability assay.
# COLO-684 = format: functional, cell-based, Homo sapiens; details: Homo sapiens, COLO-684
# Description: SANGER: Inhibition of human COLO-684 cell growth in a cell viability assay.
# CTV-1 = format: functional, cell-based, Homo sapiens; details: Homo sapiens, CTV-1;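 also: growth inhibition of the cell line, read out with a cell viability assay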
# Description: SANGER: Inhibition of human CTV-1 cell growth in a cell viability assay.
# NOMO-1 = format: functional, cell-based, Homo sapiens; details: Homo sapiens, NOMO-1;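 also: growth inhibition of human NOMO-1 cells measured by a cell viability assay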
# Description: SANGER: Inhibition of human NOMO-1 cell growth in a cell viability assay.
# SK-NEP-1 = format: functional, cell-based, Homo sapiens; details: Homo sapiens, SK-NEP-1;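 also: growth inhibition of human SK-NEP-1 cells, read out by a cell viability assay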
# Description: SANGER: Inhibition of human SK-NEP-1 cell growth in a cell viability assay.
# KM-H2 = format: functional, cell-based, Homo sapiens; details: Homo sapiens, KM-H2;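 also: growth inhibition of KM-H2 cells, read out by a cell viability assay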
# Description: SANGER: Inhibition of human KM-H2 cell growth in a cell viability assay.
# L-428 = format: functional, cell-based, Homo sapiens; details: Homo sapiens, L-428
# Description: SANGER: Inhibition of human L-428 cell growth in a cell viability assay.
# COLO-320-HSR = format: functional, cell-based, Homo sapiens; details: Homo sapiens, COLO-320-HSR;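 also: growth inhibition of COLO-320-HSR cells, determined with a cell viability assay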
# Description: SANGER: Inhibition of human COLO-320-HSR cell growth in a cell viability assay.
# C8166 = format: functional, cell-based, Homo sapiens; details: Homo sapiens, C8166;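 also: growth inhibition of human C8166 cells measured by a cell viability assay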
# Description: SANGER: Inhibition of human C8166 cell growth in a cell viability assay.
# SNU-C2B = format: functional, cell-based; details: Homo sapiens;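 also: cell viability readout used to measure compound-driven suppression of SNU-C2B cell proliferation, IC50 marking half-maximal growth inhibition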
# Description: SANGER: Inhibition of human SNU-C2B cell growth in a cell viability assay.
# DEL = format: functional, cell-based, Homo sapiens; details: Homo sapiens, DEL;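 also: growth inhibition of the human DEL cell line, read out with a cell viability assay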
# Description: SANGER: Inhibition of human DEL cell growth in a cell viability assay.
# DMS-114 = format: functional, cell-based, Homo sapiens; details: Homo sapiens, DMS-114
# U-87 MG = format: functional, cell-based, Homo sapiens, U-87MG ATCC; details: Homo sapiens, U-87 MG;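 also: growth inhibition of the cells measured with a viability assay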
# Description: SANGER: Inhibition of human U-87-MG cell growth in a cell viability assay.
# HCE-4 = format: functional, cell-based; details: Homo sapiens;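 also: cell viability assay measuring inhibition of growth in the human HCE-4 cell line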
# Description: SANGER: Inhibition of human HCE-4 cell growth in a cell viability assay.
# A704 = format: functional, cell-based; details: Homo sapiens;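 also: growth inhibition of human A704 cells, read out with a cell viability assay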
# Description: SANGER: Inhibition of human A704 cell growth in a cell viability assay.
# EW-13 = format: functional, cell-based, Homo sapiens; details: Homo sapiens, EW-13; read-out: IC50;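 also: growth inhibition of EW-13 cells, read out with a cell viability assay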
# Description: SANGER: Inhibition of human EW-13 cell growth in a cell viability assay.
# Becker = format: functional, cell-based, Homo sapiens; details: Homo sapiens, Becker;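 also: growth inhibition of Becker cells, read out with a cell viability assay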
# Description: SANGER: Inhibition of human Becker cell growth in a cell viability assay.
# LXF-289 cell line = format: functional, cell-based; details: Homo sapiens
# Description: SANGER: Inhibition of human LXF-289 cell growth in a cell viability assay.
# GAK = format: functional, cell-based, Homo sapiens; details: Homo sapiens, GAK;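 also: cell growth inhibition read out by a cell viability assay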
# Description: SANGER: Inhibition of human GAK cell growth in a cell viability assay.
# IST-SL1 = format: functional, cell-based, Homo sapiens; details: Homo sapiens, IST-SL1;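 also: growth inhibition of human IST-SL1 cells, read out with a cell viability assay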
# Description: SANGER: Inhibition of human IST-SL1 cell growth in a cell viability assay.
# U-266 = format: functional, cell-based, Homo sapiens; details: Homo sapiens, U-266
# Description: SANGER: Inhibition of human U-266 cell growth in a cell viability assay.
# PSN1 = format: functional, cell-based, Homo sapiens; details: Homo sapiens, PSN1;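 also: suppression of growth of human PSN1 cells, read out by a cell viability assay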
# Description: SANGER: Inhibition of human PSN1 cell growth in a cell viability assay.
# D283 Med = format: functional, cell-based, Homo sapiens; details: Homo sapiens, D283 Med
# Description: SANGER: Inhibition of human D-283MED cell growth in a cell viability assay.
# OVCAR-4 = format: functional, cell-based, Homo sapiens; details: Homo sapiens, OVCAR-4;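 also: growth inhibition of human OVCAR-4 cells, measured with a cell viability assay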
# Description: SANGER: Inhibition of human OVCAR-4 cell growth in a cell viability assay.
# LS-411N = format: functional, cell-based, Homo sapiens; details: Homo sapiens, LS-411N
# RKO = format: functional, cell-based, Homo sapiens; details: Homo sapiens, RKO;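 also: growth inhibition of human RKO cells, read out with a cell viability assay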
# Description: SANGER: Inhibition of human RKO cell growth in a cell viability assay.
# UACC-257 = format: functional, cell-based, Homo sapiens; details: Homo sapiens, UACC-257
# Description: SANGER: Inhibition of human UACC-257 cell growth in a cell viability assay.
# NKM-1 = format: functional, cell-based, Homo sapiens; details: Homo sapiens, NKM-1;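 also: growth inhibition of NKM-1 cells, read out with a cell viability assay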
# Description: SANGER: Inhibition of human NKM-1 cell growth in a cell viability assay.
# SNU-5 = format: functional, cell-based, Homo sapiens; details: Homo sapiens, SNU-5;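 also: cell viability readout used to measure growth inhibition in human NCI-SNU-5 cells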
# Description: SANGER: Inhibition of human NCI-SNU-5 cell growth in a cell viability assay.
# SNU1 = format: functional, cell-based, Homo sapiens; details: Homo sapiens, SNU1;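 also: growth inhibition of human NCI-SNU-1 cells, measured with a cell viability assay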
# Description: SANGER: Inhibition of human NCI-SNU-1 cell growth in a cell viability assay.
# DOHH-2 = format: functional, cell-based, Homo sapiens; details: Homo sapiens, DOHH-2;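 also: growth inhibition of human DOHH-2 cells, read out with a cell viability assay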
# Description: SANGER: Inhibition of human DOHH-2 cell growth in a cell viability assay.
# BT-474 = format: functional, cell-based, Homo sapiens; details: Homo sapiens, BT-474
# Description: SANGER: Inhibition of human BT-474 cell growth in a cell viability assay.
# NCI-H69 = format: functional, cell-based, Homo sapiens; details: Homo sapiens, NCI-H69;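 also: growth inhibition of the cell line, read out with a cell viability assay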
# Description: SANGER: Inhibition of human NCI-H69 cell growth in a cell viability assay.
# NCI-N87 = format: functional, cell-based; details: Homo sapiens;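 also: growth inhibition of human NCI-N87 cells, read out with a cell viability assay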
# Description: SANGER: Inhibition of human NCI-N87 cell growth in a cell viability assay.
# COLO-829 = format: functional, cell-based, Homo sapiens; details: Homo sapiens, COLO-829
# Description: SANGER: Inhibition of human COLO-829 cell growth in a cell viability assay.
# NCI-H526 = format: functional, cell-based, Homo sapiens; details: Homo sapiens, NCI-H526;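 also: growth inhibition of the human NCI-H526 cell line, measured by a cell viability assay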
# Description: SANGER: Inhibition of human NCI-H526 cell growth in a cell viability assay.
# COLO-800 = format: functional, cell-based, Homo sapiens; details: Homo sapiens, COLO-800;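 also: growth inhibition of COLO-800 cells, read out with a cell viability assay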
# Description: SANGER: Inhibition of human COLO-800 cell growth in a cell viability assay.
# ATN-1 = format: functional, cell-based, Homo sapiens; details: Homo sapiens, ATN-1;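 also: growth inhibition of human ATN-1 cells, read out with a cell viability assay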
# Description: SANGER: Inhibition of human ATN-1 cell growth in a cell viability assay.
# J-RT3-T3-5 = format: functional, cell-based, Homo sapiens; details: Homo sapiens, J-RT3-T3-5;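 also: cell viability assay measuring growth inhibition of human J-RT3-T3-5 cells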
# Description: SANGER: Inhibition of human J-RT3-T3-5 cell growth in a cell viability assay.
# TE-8 = format: functional, cell-based, Homo sapiens; details: Homo sapiens, TE-8;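 also: growth inhibition of TE-8 cells, measured with a cell viability readout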
# Description: SANGER: Inhibition of human TE-8 cell growth in a cell viability assay.
# DU-4475 = format: functional, cell-based, Homo sapiens; details: Homo sapiens, DU-4475
# Description: SANGER: Inhibition of human DU-4475 cell growth in a cell viability assay.
# CGTH-W-1 = format: functional, cell-based, Homo sapiens; details: Homo sapiens, CGTH-W-1;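 also: growth inhibition of human CGTH-W-1 cells measured by cell viability assay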
# Description: SANGER: Inhibition of human CGTH-W-1 cell growth in a cell viability assay.
# NCI-H1092 = format: functional, cell-based, Homo sapiens; details: Homo sapiens, NCI-H1092;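 also: cell growth inhibition measured with a cell viability assay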
# Description: SANGER: Inhibition of human NCI-H1092 cell growth in a cell viability assay.
# NEC8 = format: functional, cell-based, Homo sapiens; details: Homo sapiens, NEC8;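 also: growth inhibition of human NEC8 cells, read out by a cell viability assay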
# Description: SANGER: Inhibition of human NEC8 cell growth in a cell viability assay.
# A498 = format: functional, cell-based, Homo sapiens; details: Homo sapiens, A498;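 also: growth inhibition of human A498 cells, read out with a cell viability assay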
# Description: SANGER: Inhibition of human A498 cell growth in a cell viability assay.
# NCI-H1770 = format: functional, cell-based, Homo sapiens; details: Homo sapiens, NCI-H1770;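 also: growth inhibition of NCI-H1770 cells determined with a viability readout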
# Description: SANGER: Inhibition of human NCI-H1770 cell growth in a cell viability assay.
# RS4-11 = format: functional, cell-based, Homo sapiens; details: Homo sapiens, RS4-11;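 also: growth inhibition of RS4-11 cells, read out by a cell viability assay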
# Description: SANGER: Inhibition of human RS4-11 cell growth in a cell viability assay.
# D-247MG = format: functional, cell-based; details: Homo sapiens
# Description: SANGER: Inhibition of human D-247MG cell growth in a cell viability assay.
smiles,measurement,setting,value
COc1ccc(-c2cc3nccn3c(Nc3ncccc3C(N)=O)n2)cc1OC,IC50,HEL,1.35 µM
same,IC50,TK-10,6.96 µM
same,IC50,NB10,5.3 µM
same,IC50,COLO-684,5.84 µM
same,IC50,CTV-1,1.5 µM
same,IC50,NOMO-1,7.38 µM
same,IC50,SK-NEP-1,4.53 µM
same,IC50,KM-H2,> 8 µM
same,IC50,L-428,> 8 µM
same,IC50,COLO-320-HSR,2.9 µM
same,IC50,C8166,2.2 µM
same,IC50,SNU-C2B,1.84 µM
same,IC50,DEL,3.07 µM
same,IC50,DMS-114,> 8 µM
same,IC50,U-87 MG,> 8 µM
same,IC50,HCE-4,5.02 µM
same,IC50,A704,> 8 µM
same,IC50,EW-13,1.47 µM
same,IC50,Becker,> 8 µM
same,IC50,LXF-289 cell line,> 8 µM
same,IC50,GAK,> 8 µM
same,IC50,IST-SL1,7.98 µM
same,IC50,U-266,4.71 µM
same,IC50,PSN1,0.897 µM
same,IC50,D283 Med,> 8 µM
same,IC50,OVCAR-4,> 8 µM
same,IC50,LS-411N,3.78 µM
same,IC50,RKO,2.77 µM
same,IC50,UACC-257,> 8 µM
same,IC50,NKM-1,1.06 µM
same,IC50,SNU-5,> 8 µM
same,IC50,SNU1,1.99 µM
same,IC50,DOHH-2,2.03 µM
same,IC50,BT-474,> 8 µM
same,IC50,NCI-H69,> 8 µM
same,IC50,NCI-N87,> 8 µM
same,IC50,COLO-829,> 8 µM
same,IC50,NCI-H526,5.28 µM
same,IC50,COLO-800,> 8 µM
same,IC50,ATN-1,> 8 µM
same,IC50,J-RT3-T3-5,6.24 µM
same,IC50,TE-8,2.43 µM
same,IC50,DU-4475,2.17 µM
same,IC50,CGTH-W-1,3.37 µM
same,IC50,NCI-H1092,> 8 µM
same,IC50,NEC8,7.77 µM
same,IC50,A498,> 8 µM
same,IC50,NCI-H1770,2.61 µM
same,IC50,RS4-11,1.23 µM
OC[C@H](Cc1ccccc1)Nc1nc(Oc2ccc3c(c2)CCC3)nc2c1ncn2Cc1ccc(-c2ccccc2)cc1,IC50,HEL,3.28 µM
same,IC50,TK-10,> 10.2 µM
same,IC50,NB10,> 10.2 µM
same,IC50,COLO-684,> 10.2 µM
same,IC50,CTV-1,> 10.2 µM
same,IC50,NOMO-1,> 10.2 µM
same,IC50,SK-NEP-1,> 10.2 µM
same,IC50,KM-H2,> 10.2 µM
same,IC50,L-428,> 10.2 µM
same,IC50,COLO-320-HSR,> 10.2 µM
same,IC50,C8166,> 10.2 µM
same,IC50,SNU-C2B,> 10.2 µM
same,IC50,DEL,> 10.2 µM
same,IC50,DMS-114,> 10.2 µM
same,IC50,U-87 MG,> 10.2 µM
same,IC50,HCE-4,7.47 µM
same,IC50,A704,> 10.2 µM
same,IC50,EW-13,0.413 µM
same,IC50,Becker,> 10.2 µM
same,IC50,LXF-289 cell line,7.61 µM
same,IC50,GAK,> 10.2 µM
same,IC50,IST-SL1,> 10.2 µM
same,IC50,U-266,> 10.2 µM
same,IC50,PSN1,2.83 µM
same,IC50,D283 Med,> 10.2 µM
same,IC50,OVCAR-4,8.19 µM
same,IC50,LS-411N,8.51 µM
same,IC50,RKO,3.37 µM
same,IC50,UACC-257,> 10.2 µM
same,IC50,NKM-1,> 10.2 µM
same,IC50,SNU-5,> 10.2 µM
same,IC50,SNU1,> 10.2 µM
same,IC50,DOHH-2,> 10.2 µM
same,IC50,BT-474,> 10.2 µM
same,IC50,NCI-H69,> 10.2 µM
same,IC50,NCI-N87,> 10.2 µM
same,IC50,COLO-829,> 10.2 µM
same,IC50,NCI-H526,> 10.2 µM
same,IC50,COLO-800,> 10.2 µM
same,IC50,ATN-1,> 10.2 µM
same,IC50,J-RT3-T3-5,> 10.2 µM
same,IC50,TE-8,3.17 µM
same,IC50,DU-4475,1.63 µM
same,IC50,CGTH-W-1,> 10.2 µM
same,IC50,NCI-H1092,> 10.2 µM
same,IC50,NEC8,> 10.2 µM
same,IC50,A498,> 10.2 µM
same,IC50,NCI-H1770,8.9 µM
same,IC50,RS4-11,> 10.2 µM
O=C1NC(=O)c2c1c(-c1ccccc1Cl)cc1[nH]c3ccc(O)cc3c21,IC50,HEL,1.22 µM
same,IC50,TK-10,> 2 µM
same,IC50,NB10,> 2 µM
same,IC50,COLO-684,> 2 µM
same,IC50,CTV-1,> 2 µM
same,IC50,NOMO-1,> 2 µM
same,IC50,SK-NEP-1,> 2 µM
same,IC50,KM-H2,> 2 µM
same,IC50,L-428,> 2 µM
same,IC50,COLO-320-HSR,1.82 µM
same,IC50,C8166,> 2 µM
same,IC50,D-247MG,> 2 µM
same,IC50,SNU-C2B,> 2 µM
same,IC50,DEL,0.485 µM
same,IC50,DMS-114,> 2 µM
same,IC50,U-87 MG,> 2 µM
same,IC50,HCE-4,> 2 µM
same,IC50,EW-13,> 2 µM
same,IC50,Becker,> 2 µM
same,IC50,GAK,> 2 µM
same,IC50,IST-SL1,1.46 µM
same,IC50,U-266,> 2 µM
same,IC50,PSN1,> 2 µM
same,IC50,D283 Med,> 2 µM
same,IC50,LS-411N,> 2 µM
same,IC50,RKO,> 2 µM
same,IC50,UACC-257,> 2 µM
same,IC50,NKM-1,> 2 µM
same,IC50,SNU-5,> 2 µM
same,IC50,SNU1,0.898 µM
same,IC50,DOHH-2,> 2 µM
same,IC50,BT-474,> 2 µM
same,IC50,NCI-H69,> 2 µM
same,IC50,NCI-N87,> 2 µM
same,IC50,COLO-829,> 2 µM
same,IC50,NCI-H526,> 2 µM
same,IC50,COLO-800,> 2 µM
same,IC50,ATN-1,0.316 µM
same,IC50,J-RT3-T3-5,1.58 µM
same,IC50,TE-8,> 2 µM
same,IC50,DU-4475,> 2 µM
same,IC50,CGTH-W-1,> 2 µM
same,IC50,NCI-H1092,> 2 µM
same,IC50,A498,> 2 µM
same,IC50,NCI-H1770,> 2 µM
same,IC50,RS4-11,0.898 µM
